What was measured:
CSBP/p38 = biological target: T1, CSBP/p38 (Homo sapiens, UniProt Q16539); test: CSBP/p38 Kinase Assay (32P transfer to T669 peptide); type: biochemical; conditions: "in this binding assay or a similar assay"; read-out: positive inhibitory activity, IC50
T1 construct: made in house; host or cells: yeast
Protocol: This assay measures the CSBP/p38-catalyzed transfer of ^32p from [a-^32P]ATP to threonine residue in an epidermal growth factor receptor (EGFR)-derived peptide (T669) with the following sequence: […] (residues 661–681). (See Gallagher et al., “Regulation of Stress Induced Cytokine Production by Pyridinyl Imidazoles: Inhibition of CSBP Kinase”, BioOrganic & Medicinal Chemistry, 1997, 5, 49–64).
Reactions were carried in round bottom 96 well plate (from Corning) in a […]. Reactions contained (in final concentration): 25 mM Hepes, pH 7.5; 8 mM MgCl2; 0.17 mM ATP (the Km[ATP] of p38 (see Lee et al., Nature 300, n72 pg. 639–746 (December 1994)); 2.5 uCi of [g-32P]ATP; 0.2 mM sodium orthovanadate; 1 mM DTT; 0.1% BSA; 10% glycerol; 0.67 mM T669 peptide; and 2–4 nM of yeast-expressed, activated and purified p38. Reactions were initiated by the addition of [gamma-32P]Mg/ATP, and incubated for 25 min. at 37° C. Inhibitors (dissolved in DMSO) were incubated with the reaction mixture on ice for 30 minutes prior to adding the 32P-ATP. Final DMSO concentration was 0.16%. Reactions were terminated by adding 10 ul of 0.3 M phosphoric acid, and phosphorylated peptide was isolated from the reactions by capturing it on p81 phosphocellulose filters. Filters were washed with 75 mM phosphoric acids, and incorporated 32P was quantified using beta scintillation counter. […]

Interleukin-1 (IL-1) = Interleukin-1 (IL-1) production by LPS-stimulated human peripheral blood monocytes; type: cell-based; conditions: Monocyte, lipopolysaccharide 50 ng/ml, 24 h
Protocol: Human peripheral blood monocytes are isolated and purified from either fresh blood preparations from volunteer donors, or from blood bank buffy coats, according to the procedure of Colotta et al, J Immunol, 132, 936 (1984). These monocytes (1×10^6) are plated in 24-well plates at a concentration of 1–2 million/ml per well. The cells are allowed to adhere for 2 hours, after which time non-adherent cells are removed by gentle washing. Test compounds are then added to the cells for 1 h before the addition of lipopolysaccharide (50 ng/ml), and the cultures are incubated at 37° C. for an additional 24 h. At the end of this period, culture supernatants are removed and clarified of cells and all debris. Culture supernatants are then immediately assayed for IL-1 biological activity, either by the method of Simon et al., J. Immunol. Methods, 84, 85, (1985) (based on ability of IL-1 to stimulate a Interleukin 2 producing cell line (EL-4) to secrete IL-2, in concert with A23187 ionophore) or the method of Lee et al., J. ImmunoTherapy, 6 (1), 1–12 (1990) (ELISA assay).

T1 sequence (Q16539 whole entry): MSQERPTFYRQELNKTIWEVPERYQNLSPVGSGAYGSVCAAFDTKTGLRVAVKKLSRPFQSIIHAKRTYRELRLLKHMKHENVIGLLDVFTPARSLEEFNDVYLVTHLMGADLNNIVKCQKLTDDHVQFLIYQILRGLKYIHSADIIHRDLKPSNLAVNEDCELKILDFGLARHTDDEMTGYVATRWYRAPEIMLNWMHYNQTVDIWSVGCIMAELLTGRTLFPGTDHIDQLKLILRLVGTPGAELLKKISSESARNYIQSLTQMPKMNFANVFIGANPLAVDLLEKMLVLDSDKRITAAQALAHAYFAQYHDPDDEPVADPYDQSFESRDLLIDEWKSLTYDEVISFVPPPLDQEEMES

SMILES	IC50 (CSBP/p38)	IC50 (Interleukin-1 (IL-1))
Nc1cc(-n2nc(-c3ccccc3)nc2-c2ccc(F)cc2)ncn1 [Example 2, 1-(6-Aminopyrimidin-4-yl)-3-phenyl-5-(4-fluorophenyl)-1,2,4-triazole]	< 50 µM	–
Fc1ccc(-c2nc(-c3ccccc3)nn2-c2ccncc2)cc1 [Example 1, 1-(Pyrid-4-yl)-3-phenyl-5-(4-fluorophenyl)-1,2,4-triazole]	–	< 7 µM

Reference: patent US7223760B2, “Substituted triazole compounds” (SmithKline Beecham Corporation, priority 1998, dated 2007)
